# The supplement of paper PMC11451515
# Tested on: P12-Ichikawa
# Assay: cell viability relative to DMSO control; higher = less cytotoxic
# Settings: 48 h
# In short: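 Three leukemia lines were tested: NOMO1 and SEM at 500 cells/well and P12-Ichikawa at 1000 cells/well. Each was adapted for at least four passages in each medium and seeded in 5 μl in 1536-well plates, and library compounds in DMSO were pin-dosed from 47 μM to 0.79 nM in 11 threefold steps. After 48 h at 37°C, CellTiter-Glo One luminescence was read. Viability is a percentage relative to DMSO wells on each plate, with cell-free wells as background.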
# [1] = HPLM + 10% dialyzed FBS, 0.000781 µM
# [2] = HPLM + 10% dialyzed FBS, 0.00234 µM
# [3] = HPLM + 10% dialyzed FBS, 0.00702 µM
# [4] = HPLM + 10% dialyzed FBS, 0.0211 µM
# [5] = HPLM + 10% dialyzed FBS, 0.0632 µM
# [6] = HPLM + 10% dialyzed FBS, 0.19 µM
# [7] = HPLM + 10% dialyzed FBS, 0.569 µM
# [8] = HPLM + 10% dialyzed FBS, 1.71 µM
# [9] = HPLM + 10% dialyzed FBS, 5.12 µM
# [10] = HPLM + 10% dialyzed FBS, 15.4 µM
# [11] = HPLM + 10% dialyzed FBS, 46.1 µM
# [12] = RPMI 5 mM glucose + 10% FBS, 0.000781 µM
# [13] = RPMI 5 mM glucose + 10% FBS, 0.00234 µM
# [14] = RPMI 5 mM glucose + 10% FBS, 0.00702 µM
# [15] = RPMI 5 mM glucose + 10% FBS, 0.0211 µM
# [16] = RPMI 5 mM glucose + 10% FBS, 0.0632 µM
# [17] = RPMI 5 mM glucose + 10% FBS, 0.19 µM
# [18] = RPMI 5 mM glucose + 10% FBS, 0.569 µM
# [19] = RPMI 5 mM glucose + 10% FBS, 1.71 µM
# [20] = RPMI 5 mM glucose + 10% FBS, 5.12 µM
# [21] = RPMI 5 mM glucose + 10% FBS, 15.4 µM
# [22] = RPMI 5 mM glucose + 10% FBS, 46.1 µM
# [23] = RPMI 5 mM glucose + 10% dialyzed FBS, 0.000781 µM
# [24] = RPMI 5 mM glucose + 10% dialyzed FBS, 0.00234 µM
# [25] = RPMI 5 mM glucose + 10% dialyzed FBS, 0.00702 µM
# [26] = RPMI 5 mM glucose + 10% dialyzed FBS, 0.0211 µM
# [27] = RPMI 5 mM glucose + 10% dialyzed FBS, 0.0632 µM
# [28] = RPMI 5 mM glucose + 10% dialyzed FBS, 0.19 µM
# [29] = RPMI 5 mM glucose + 10% dialyzed FBS, 0.569 µM
# [30] = RPMI 5 mM glucose + 10% dialyzed FBS, 1.71 µM
# [31] = RPMI 5 mM glucose + 10% dialyzed FBS, 5.12 µM
# [32] = RPMI 5 mM glucose + 10% dialyzed FBS, 15.4 µM
# [33] = RPMI 5 mM glucose + 10% dialyzed FBS, 46.1 µM
Compound,cell viability [1],cell viability [2],cell viability [3],cell viability [4],cell viability [5],cell viability [6],cell viability [7],cell viability [8],cell viability [9],cell viability [10],cell viability [11],cell viability [12],cell viability [13],cell viability [14],cell viability [15],cell viability [16],cell viability [17],cell viability [18],cell viability [19],cell viability [20],cell viability [21],cell viability [22],cell viability [23],cell viability [24],cell viability [25],cell viability [26],cell viability [27],cell viability [28],cell viability [29],cell viability [30],cell viability [31],cell viability [32],cell viability [33]
CC(C)(C)NC(=O)Nc1cccc(Nc2ncc(F)c(NC(C)(C)CO)n2)c1,105%,110%,112%,114%,118%,121%,117%,120%,108%,14.7%,24.4%,114%,118%,124%,121%,129%,121%,122%,132%,116%,35.2%,40.4%,120%,117%,120%,116%,124%,119%,117%,119%,114%,34.6%,51%
C[C@@H]1COCCN1c1cc(C2([S@+](C)(=N)[O-])CC2)nc(-c2ccnc3[nH]ccc23)n1,99.7%,103%,106%,110%,110%,109%,99.8%,92.3%,47.5%,15.7%,7.87%,104%,105%,118%,114%,109%,114%,104%,90.7%,55%,19.7%,7.94%,99.4%,110%,117%,113%,123%,128%,109%,84.7%,40.8%,16.5%,8.66%
C[S+](=O)([O-])Nc1ccc([N+](=O)[O-])cc1Oc1ccccc1,114%,115%,111%,120%,112%,115%,118%,109%,109%,102%,59.4%,122%,121%,120%,119%,120%,122%,116%,111%,116%,112%,28.5%,110%,108%,114%,113%,121%,110%,117%,103%,106%,103%,48.7%
C[C@]12CC[C@@H]3c4ccc(O)cc4CC[C@H]3[C@@H]1[C@@H](O)[C@@H](O)[C@@H]2O,119%,117%,119%,112%,120%,124%,122%,120%,119%,125%,124%,105%,113%,109%,104%,123%,118%,122%,121%,126%,131%,113%,111%,120%,118%,115%,120%,127%,127%,133%,127%,129%,135%
CC(C)N[C@@H]1CCn2c(=O)[nH]c3cccc(c32)[C@H]1O,111%,112%,118%,120%,117%,115%,109%,112%,97.1%,107%,100%,129%,112%,121%,122%,114%,104%,116%,110%,110%,113%,106%,105%,104%,116%,114%,109%,108%,99.6%,105%,104%,97.9%,93.8%
CN(C)C1CCN(C(=O)c2ccc(NC(=O)Nc3nc(N4CCOCC4)nc(N4CCOCC4)n3)cc2)CC1,91.2%,92%,101%,91.7%,75.9%,76%,66.4%,64.2%,57.8%,34.3%,20.9%,85.6%,84.9%,82.6%,73%,56%,58.5%,48.2%,42.2%,35.4%,34.7%,22.9%,83.7%,85.5%,80.6%,78.6%,61.6%,56.2%,47.4%,43.4%,41.5%,34%,20.1%
CC(C)c1nc(CN(C)C(=O)N[C@H](C(=O)N[C@@H](Cc2ccccc2)C[C@H](O)[C@H](Cc2ccccc2)NC(=O)OCc2cncs2)C(C)C)cs1,91.9%,87.4%,87.2%,102%,103%,92.1%,78.4%,78.2%,83.9%,85.8%,89.6%,87.2%,86.5%,87.7%,84.2%,92.4%,92.6%,77.2%,90.1%,81.5%,79.8%,88.2%,85.3%,79.8%,89.4%,83.4%,92.6%,87.2%,70.8%,82.2%,77.9%,82.8%,82.3%
CN[C@H]1CCC2=CC(=C(OC)C(=C2C/3=C/C=C(OC)\C(=O)/C=C13)OC)OC,107%,113%,104%,12.9%,19.9%,11.1%,11.2%,8.53%,9.25%,7.37%,3.31%,113%,118%,102%,15.9%,22.2%,13.3%,9.95%,9.19%,7.3%,6.54%,2.29%,119%,118%,102%,21.1%,33.4%,19%,15.6%,11.3%,9.48%,8.81%,4.1%
COC(=O)C[C@](O)(CCCC(C)(C)O)C(=O)O[C@@H]1C(OC)=CC23CCCN2CCc2cc4c(cc2[C@H]13)OCO4 (some centres undefined),105%,102%,111%,99.4%,110%,106%,102%,97.1%,102%,91.3%,88.1%,99%,101%,111%,94.8%,91.5%,101%,103%,97.7%,95.1%,91.7%,94.1%,102%,104%,98.6%,99.7%,102%,98.3%,97.3%,96%,91.6%,100%,89.5%
CCOC(=O)c1ccc(OC(=O)CCCCCNC(=N)N)cc1,117%,121%,123%,122%,125%,126%,124%,76%,10.7%,16.3%,17.4%,–,–,–,–,–,–,–,–,–,–,–,–,–,–,–,–,–,–,–,–,–,–
C[C@H]1COC2=C3N1\C=C(C(O)=O)/C(=O)C3=CC(=C2N4CCN(C)CC4)F,117%,116%,121%,116%,109%,113%,97.2%,109%,92.7%,85.6%,82.9%,111%,113%,117%,120%,98.2%,116%,98.6%,103%,84.2%,62.5%,70.4%,109%,111%,114%,118%,108%,112%,91.7%,94.7%,82.4%,74.2%,62.6%
COc1cc(OC2CCN(C)CC2)ccc1Nc1ncc2c(n1)n(C1CCCC1)c(=O)n2C,83.2%,85.4%,83%,91.2%,91.6%,97.9%,88.5%,92.8%,99.6%,86.2%,2.55%,74.9%,93.8%,82.7%,88.2%,85.8%,81.4%,91.6%,81.3%,87.2%,69.9%,5.17%,76.7%,80.6%,76.3%,85.5%,86.1%,80.4%,86.5%,83%,85.6%,61.4%,0.821%
COc1ccc([S+](=O)([O-])N(C(C)=O)c2ccccc2/C=C/c2cc[n+]([O-])cc2)cc1,119%,125%,118%,121%,125%,118%,116%,64.9%,24.5%,25.1%,10.5%,–,–,–,–,–,–,–,–,–,–,–,–,–,–,–,–,–,–,–,–,–,–
c1ccc2[nH]c(-c3cscn3)nc2c1,115%,124%,124%,128%,122%,128%,122%,122%,108%,86%,74.6%,113%,118%,110%,122%,128%,120%,128%,120%,135%,117%,90.7%,124%,131%,122%,124%,130%,127%,130%,121%,125%,109%,72.9%
NC\1=N\C(=O)N(\C=C1)[C@@H]2O[C@H](CO)[C@@H](O)[C@@H]2O,26.1%,22.9%,9.22%,8.83%,4.99%,6.11%,6.14%,4.49%,3.27%,2.43%,0.778%,14.9%,15.4%,9.94%,5.41%,3.93%,3.94%,3.63%,2.08%,1.73%,1.04%,0.402%,20%,16.6%,11.1%,10.5%,7.45%,6.15%,7.46%,5.67%,3.34%,3.72%,1.87%
CCC1(c2ccccc2)C(=O)NCNC1=O,103%,114%,118%,120%,120%,118%,121%,119%,116%,118%,119%,104%,111%,122%,128%,134%,127%,129%,126%,142%,143%,131%,94.5%,109%,118%,115%,120%,116%,117%,118%,126%,121%,117%
